{"source": "patent US20250250265A1", "about": "“BENZOTHIAZOLE-PHENYLSULFONYL-PIPERIDINE ANALOGS AS ACTIVATORS OF NACYLPHOSPHATIDYLETHANOLAMINE HYDROLYZING PHOSPHOLIPASE D” (priority 2022, published 2025)", "key": {"[1]": {"target": "T1, recombinant mouse NAPE-PLD (Mus musculus, UniProt Q8BH82)", "T1 construct": "hexahistidine (His6) (C); made in house; host or cells: E. coli", "T1 sequence (Q8BH82 1-396)": "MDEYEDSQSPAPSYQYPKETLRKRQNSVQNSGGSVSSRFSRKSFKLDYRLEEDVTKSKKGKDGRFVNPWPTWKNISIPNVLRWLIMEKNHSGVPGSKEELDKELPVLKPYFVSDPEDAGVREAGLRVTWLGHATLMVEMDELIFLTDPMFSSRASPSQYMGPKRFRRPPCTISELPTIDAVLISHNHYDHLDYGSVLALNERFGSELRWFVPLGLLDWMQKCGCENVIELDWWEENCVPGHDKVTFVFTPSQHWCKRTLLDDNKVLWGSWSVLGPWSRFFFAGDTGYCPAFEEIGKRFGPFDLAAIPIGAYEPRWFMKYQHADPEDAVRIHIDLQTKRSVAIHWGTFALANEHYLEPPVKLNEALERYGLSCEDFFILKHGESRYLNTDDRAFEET", "assay": "In vitro competition assay (LEI-401, VU233, VU534) on recombinant mouse Nape-pld", "format": "biochemical", "procedure": "A similar in vitro fluorescence Nape-pld activity assay was used for LEI-401 and VU233 competition assays except that this assay was performed using black-walled clear-bottom 96-well plates with 3.5 μM PED-A1 and no N-palmitoyl-dioleoyl-PE used as substrate and read in a BioTek Synergy H1 plate reader with the slope of the fluorescence signal from 0-4 min (linear phase) used as the assay readout. LEI-401, VU233, and VU534 were incubated for 1 h prior to addition of PED-A1. The Michaelis-Menten study used this same assay except with graded concentration of flame-NAPE."}, "[2]": {"target": "T2, NAPE-PLD activity in primary BMDMϕ (Mus musculus, UniProt Q8BH82)", "T2 construct": "endogenous in cells; host or cells: primary bone-marrow-derived macrophages (C57BL6/j mice)", "T2 sequence (Q8BH82 1-396)": "T1 sequence (Q8BH82 1-396)", "assay": "NAPE-PLD activity in primary bone marrow derived macrophages", "format": "cell-based", "settings": "VU534 at 10 μM (FIG. 5)"}, "[3]": {"target": "T3, NAPE-PLD activity of RAW264.7 macrophages (Mus musculus, UniProt Q8BH82)", "T3 construct": "endogenous in cells; host or cells: RAW264.7", "T3 sequence (Q8BH82 1-396)": "T1 sequence (Q8BH82 1-396)", "assay": "Cell-based NAPE-PLD activity in RAW264.7 macrophages (PED-A1 with orlistat)", "settings": "with 20 μM VU534 (FIG. 17C)", "procedure": "(§1) NAPE-PLD activity was measured in cells as previously described, except that FluoroBrite DMEM (Gibco A1896701) was used as media. See Zarrow et al., J. Lipid Res. 63(1): 100156 (2022). For RAW264.7 assays, PED-A1 (3.6 μM final) was used as the substrate with 10 μM orlistat added to inhibit PLA1 activity, while for HepG2 cells, flame-NAPE was used (with no orlistat added)."}, "[4]": {"test_system": "bone marrow-derived macrophages (BMDM)", "assay": "Efferocytosis assay with bone marrow-derived macrophages and apoptotic Jurkat cells", "format": "cell-based, mouse", "settings": "10 μM, 6 h before assay", "procedure": "Male C57BL6/j wild-type or Napepld^−/− mice were euthanized with isoflurane and hind legs were removed. Marrow was flushed from femurs and tibias using DMEM containing 4.5 g/L glucose and a 26-gauge needle. Cell suspensions were passed over a 40-μm filter, centrifuged at 500×g, and resuspended in 50 ml of DMEM containing 4.5 g/L glucose, 20% L-cell conditioned media, 10% heat-inactivated FBS, and 1% penicillin/streptomycin. 10 ml of cell suspension was plated into each of five 100-mm dishes and incubated for four days at 37° C. and 5% CO2. On day four, non-adherent cells and debris were aspirated from the plates and replaced with fresh media. After 7 days of differentiation, cells were harvested for use in experiments.\nAssays were performed according to previously described protocols. See e.g., Doran et al. J. Clin. Invest. 127(11): 4075-4089 (2017); Proto et al., Immunity 49(4): 666-677 (2018). Bone marrow-derived macrophages were seeded at 0.25×10^6 cells/well in a non-tissue culture-treated 24-well plate and allowed to adhere overnight. Macrophages were treated with various compounds at a final concentration of 10 μM or DMSO as a vehicle for 6 hours prior to each experiment. Jurkat cells were exposed to UV light (254 nm) for 5 minutes to induce apoptosis and then incubated in a 37° C. incubator with 5% CO2 for 2 hours. Surveillance staining of these cells routinely yielded approximately 80-90% apoptosis (Annexin V+) using this method. Apoptotic Jurkat cells were labeled with either CellVue Claret (Millipore Sigma) or Cell Trace Violet (Invitrogen) per the manufacturer's instructions. After staining, cells were resuspended in macrophage medium at a density of […] and 500 μL of this suspension was added to the drug-containing media on the macrophages to achieve a cell ratio of 3:1 Jurkats: macrophages. After incubating for 45 minutes at 37° C. and 5% CO2, the medium was aspirated, and the macrophages were gently washed twice with PBS to remove unbound apoptotic cells. Macrophages were then removed from the plate using Cell Stripper (Sigma), washed, resuspended in staining buffer consisting of 2% FBS in PBS with 2 mM EDTA, and blocked with anti-mouse CD16/32 antibodies for 15 minutes on ice. After blocking, cells were pelleted and resuspended with F4/80. Cells were incubated for 45 minutes on ice in the dark, then washed and resuspended in staining buffer for analysis. Cells were analyzed using an Attune NxT cytometer (Thermo Fisher) and data were analyzed using FlowJo software to quantify the proportion of F4/80^+ macrophages that co-stained for apoptotic cells (% efferocytosis)."}, "[5]": {"target": "T4, NAPE-PLD activity of HepG2 cells (Homo sapiens, UniProt Q6IQ20)", "T4 construct": "endogenous in cells; host or cells: HepG2", "T4 sequence (Q6IQ20 whole entry)": "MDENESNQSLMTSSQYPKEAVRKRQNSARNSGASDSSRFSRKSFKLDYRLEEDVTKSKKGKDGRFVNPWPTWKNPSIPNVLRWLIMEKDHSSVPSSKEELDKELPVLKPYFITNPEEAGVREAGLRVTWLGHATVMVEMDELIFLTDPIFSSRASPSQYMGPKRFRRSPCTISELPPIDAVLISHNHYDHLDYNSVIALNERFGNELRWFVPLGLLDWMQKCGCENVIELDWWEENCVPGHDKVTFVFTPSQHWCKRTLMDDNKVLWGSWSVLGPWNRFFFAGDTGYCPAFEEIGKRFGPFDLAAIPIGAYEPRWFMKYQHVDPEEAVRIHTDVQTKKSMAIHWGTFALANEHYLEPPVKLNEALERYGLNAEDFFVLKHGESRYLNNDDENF", "assay": "Cell-based NAPE-PLD activity in HepG2 cells (flame-NAPE)", "settings": "10 μM", "procedure": "In vitro models of the hepatic steatosis of non-alcoholic fatty liver disease (NAFLD) are well-established, with the primary method being incubation of primary human hepatocytes or hepatocyte cell lines such as HepG2, HuH7, HepaRG, with oleic acid and palmitic acid for 24 to 48 h, then measuring the resulting steatosis, lipid peroxidation, apoptosis, and inflammatory gene expression. Using flame-NAPE to measure NAPE-PLD activity in the human hepatoma HepG2 cell line, the experimental data confirmed that VU534 activated NAPE-PLD in human cells (AC50 940 nM; max % bA 155%). Bithionol (10 μM) reduced HepG2 flame-NAPE hydrolysis by >67%.\nas §1"}}, "note": "“Also recorded” adds a separate entry of the source.", "data": [{"smiles": "O=C(NCC1CC1)c1cc(N2CC[C@H](O)C2)nc(N2CCC[C@@H](c3ccccc3)C2)n1", "note": "[LEI-401, reference compound]", "values": [{"measurement": "inhibition of mouse NAPE-PLD activity at 100 μM", "setting": "[1]; 100 μM", "result": "nearly complete inhibition"}, {"measurement": "inhibition of mouse NAPE-PLD activity", "setting": "[1]; graded concentrations (FIG. 19C)", "result": "inhibited mouse NAPE-PLD activity in a concentration-dependent manner"}]}, {"smiles": "Oc1c(Cl)cc(Cl)cc1Sc1cc(Cl)cc(Cl)c1O", "note": "[bithionol, reference compound]", "values": [{"measurement": "effect on NAPE-PLD activity in primary BMDM", "setting": "[2]", "result": "inhibits NAPE-PLD activity"}, {"measurement": "effect on increase in RAW264.7 NAPE-PLD activity induced by 20 μM VU534", "setting": "[3]", "result": "blocked in a concentration-dependent manner; also recorded: blocks increased Nape-pld activity"}, {"measurement": "effect on efferocytosis by wild-type BMDM", "setting": "[4]", "result": "markedly reduced efferocytosis"}, {"measurement": "effect on efferocytosis by wild-type BMDM", "setting": "[4]; listed as Bith", "result": "reduced efferocytosis"}, {"measurement": "reduction of HepG2 flame-NAPE hydrolysis", "setting": "[5]", "result": "> 67", "unit": "%"}]}, {"smiles": "CCC(=O)N1CCC(NC(=O)Nc2ccc(OC(F)(F)F)cc2)CC1", "note": "[TPPU, N-[1-(1-Oxopropyl)-4-piperidinyl]-N′-[4-(trifluoromethoxy)phenyl]urea, reference compound]", "values": [{"measurement": "effect on efferocytosis by wild-type BMDM", "setting": "[4]", "result": "Neither AUDA nor TPPU significantly enhanced efferocytosis"}]}, {"smiles": "O=C(O)CCCCCCCCCCCNC(=O)NC12CC3CC(CC(C3)C1)C2", "note": "[AUDA, 12-[[(tricyclo[3.3.1.13,7]dec-1-ylamino)carbonyl]amino]-dodecanoic acid, reference compound]", "values": [{"measurement": "effect on efferocytosis by wild-type BMDM", "setting": "[4]", "result": "Neither AUDA nor TPPU significantly enhanced efferocytosis"}]}]}
